Two compounds from US4761414A, “Substituted 1H-pyrimido[1,2-a-]-pyrido[3,4-e]pyrazine 6 oxides” (G. D. Searle & Co., priority 1986, dated 1988) can be followed below.

Common to all, as to type: cell-based
In assay [1] the test system is Campylobacter fetus ss. jejuni NCTC 10842. Briefly: MIC vs panel of anaerobes. Particulars: NCTC10842, procedures of Example 40.
The test system of assay [2] is B. fragilis MZ-R ATCC 11295. The experiment in a line: MIC/MBC against Bacteroides fragilis strain D. Particulars: for MBC: ATCC11295, 99.9% reduction in viable count; for MIC: ATCC11295, 48 h, 48 hours, 37° C., anaerobic. The method in brief: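 B. fragilis grown in Wilkens-Chalgren broth; final inoculum 10^5 cells/ml with test compound dissolved in solvent such as DMSO, PEG 200 or methanol. Incubated 48 hours at 37 °C under anaerobic atmosphere (85% N2, 10% CO2, 5% H2). MIC read visually as lowest concentration with no detectable growth; MBC by subculturing 50 μl from each well into fresh medium.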

Assay [3] relates to Clostridium perfringens NCTC 8237. Briefly: microbe, parasite or virus in culture. Particulars: Clostridium perfringens, NCTC8237, Clostridium perfringens NCTC 8237; procedures of Example 40.
Another assay concerns B. fragilis NCTC 9343. Briefly: MIC/MBC against Bacteroides fragilis strain B. Particulars: for MBC: NCTC9343, 99.9% reduction in viable count; for MIC: NCTC9343, 48 h, 48 hours, 37° C., anaerobic. The method in brief: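 Broth microdilution in Wilkens-Chalgren broth, final inoculum 10^5 cells/ml, incubated anaerobically (85% N2, 10% CO2, 5% H2) 48 hours at 37° C. MIC read visually as lowest concentration with no detectable growth; MBC by subculturing 50 μl from each well into fresh medium.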

Another assay deals with B. fragilis NCTC 10581. The experiment in a line: MIC/MBC against Bacteroides fragilis strain A (96-well microtitre plates, anaerobic chamber). Particulars: Bacteroides fragilis; for MBC: NCTC10581, 99.9% reduction in viable count; for MIC: NCTC10581, 48 h, 48 hours, 37° C., anaerobic.
The subject of another assay is B. fragilis NCTC 9344. Briefly: MIC/MBC against Bacteroides fragilis strain C. Particulars: for MBC: NCTC9344, 99.9% reduction in viable count; for MIC: NCTC9344, 48 h, 48 hours, 37° C., anaerobic. The method, boiled down: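 Broth microdilution was run in Wilkens-Chalgren broth at a final inoculum of 10^5 cells/ml, with 48 h incubation at 37 °C under anaerobic atmosphere (85% N2, 10% CO2, 5% H2). MIC is the lowest concentration with no visible growth; MBC was determined by subculturing 50 μl from each well into fresh medium.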

Converted amounts (≈) assume the structure as drawn.

What is called MBC is the smallest concentration meeting the test's criterion for killing. In the case of `COc1ccc(C2=[N+]([O-])c3cccnc3N3CC(C)(C)CN=C23)cc1OC` [Example 22, 2,3-Dihydro-5-(3,4-dimethoxyphenyl)-2,2-dimethyl-1H-pyrimido[1,2-a]pyrido[3,2-e]pyrazine 6-oxide], the MIC in assay [1] was 50 µg/mL (≈ 136 µM); in assay [2], < 0.8 µg/mL; in assay [3], 6.2 µg/mL (≈ 16.9 µM); against B. fragilis NCTC 9343, < 0.8 µg/mL; with B. fragilis NCTC 10581, 1.5 µg/mL (≈ 4.09 µM); with B. fragilis NCTC 9344 it was < 0.8 µg/mL. In addition, the MBC is < 0.8 µg/mL in assay [2], < 0.8 µg/mL with B. fragilis NCTC 9343, 1.5 µg/mL (≈ 4.09 µM) in the assay with B. fragilis NCTC 10581 and < 0.8 µg/mL in the assay with B. fragilis NCTC 9344.

For the compound `[O-][N+]1=C(c2ccccc2)C2=NCC3(CCCCC3)CN2c2ccncc21` [Example 30, Spiro[cyclohexane-1,2'-[2,3]-dihydro-[5]-phenyl-[1H]pyrimido[1,2-a]pyrido[3,4-e]pyrazine [6]-oxide]], the MIC is 100 µg/mL (≈ 289 µM) in assay [1]; < 0.8 µg/mL in assay [2]; 12.5 µg/mL (≈ 36.1 µM) in assay [3]; < 0.8 µg/mL in the assay on B. fragilis NCTC 9343; < 0.8 µg/mL against B. fragilis NCTC 10581; < 0.8 µg/mL with B. fragilis NCTC 9344. Also, the MBC in assay [2] is < 0.8 µg/mL; with B. fragilis NCTC 9343, 1.5 µg/mL (≈ 4.33 µM); against B. fragilis NCTC 10581 it was < 0.8 µg/mL; against B. fragilis NCTC 9344, < 0.8 µg/mL.
